Where two headings read alike, the source gives them in different places.
Key:
[1] = system: Human iPSC derived iCell GABAergic Neurons; test: Human iPSC neurite outgrowth assay; type: cell-based
Method: Biological Example 4: Toxicology Study
Human iPSC Neurite Outgrowth Assay
Human induced pluripotent stem cell (iPSC) derived iCell GABAergic Neurons (Cellular Dynamics Inc.) were seeded at a density of 67,500 cells per square centimeter into 384 well plates. The neurons were plated for 1 hour in attachment media before exchange for serum-free growth media (Cellular Dynamics Inc.). The serum-free growth media was exchanged for fresh media and the plated neurons were treated with test compounds and control compounds at 6 concentrations (1 nM-100 μM) at 4 and 24 hour timepoints in triplicate wells. Optimum neuron cell attachment to the plates was obtained at the 24 hour timepoint. Vincristine was utilized as the positive control for toxic inhibition of neurite outgrowth and 0.1% DMSO treatment was used for control treatment of neurons. Celltracker and DRAQ7 stains were applied prior to fixation of cells to assess nuclear and cell viability. Cells were then fixed for 20 minutes in 4% formaldehyde in PBS containing Hoechst dye and then fixative was replaced with PBS twice. High content imaging was performed with 9 fields of 20× magnification on a CX7 HCS system with an algorithm to enable quantification of neurite lengths and neurite branch points in all treatment groups. The results of the counts and measurements were then analyzed by the strictly standardized mean difference (SSMD) method of analysis to measure effect size for any decreases in mean neurite total length per cell (microns) or changes in mean branch point counts per cell (PhenoVista Biosciences, San Diego). FIG. 1 depicting plots of mean branch point counts per cell as a function of concentration for Vincristine, RG783/R07020322, and Compound 73 (free base, purified without addition of TFA). […]

[2] = system: HBV-infected NTCP-HepG2 cells, secreted HBsAg; test: microbe, parasite or virus in culture; type: cell-based, hepatitis B virus (genotype D, AD38-derived); settings: Hepatitis B virus, 120 h, secreted HBsAg in supernatant after 5 days; geometric mean of minimum four determinations; read-out: NTCP HBsAg EC50
How it was run: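 NTCP-HepG2 cells were infected with genotype D HBV at 4000 genome equivalents/cell, then seeded 4 days post-infection with serially diluted compounds (1% DMSO) for 5 days. Supernatant HBsAg was measured by chemiluminescent MSD immunoassay. EC50 from four-parameter fit, geometric mean of ≥4 determinations.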

[3] = MT-4 cytotoxicity assay; type: cell-based, human; settings: human
[4] = five days, Cell Titer Glo luminescence, read-out: MT-4 CC50

In the case of `COCCCOc1cc2c(cc1OC)-c1cc(=O)c(C(=O)O)cn1[C@H](C(C)C)C2` [RG7834/R07020322], the “neurite total length and branch point counts” value [1] is reported as “significant decreases”, the “Decreased Neurite Length SSMD Values” ([1]; human, 4 h, 10 μM) is reported as −3.8 and the “Branch Point Count SSMD Values” ([1]; human, 4 h, 100 μM) is reported as −5.2. The “Decreased Neurite Length SSMD Values” ([1]; human, 4 h, 100 μM) was −4.0, the “Branch Point Count SSMD Values” ([1]; human, 24 h, 1 μM) was −3.3 and the “Decreased Neurite Length SSMD Values” ([1]; human, 24 h, 1 μM) was −3.4. The “Branch Point Count SSMD Values” ([1]; human, 24 h, 10 μM) was −3.4, the “Decreased Neurite Length SSMD Values” ([1]; human, 24 h, 10 μM) was −5.9 and the “Branch Point Count SSMD Values” ([1]; human, 24 h, 100 μM) was −5.0. The “Decreased Neurite Length SSMD Values” ([1]; human, 24 h, 100 μM) was −4.5.
For `COCCCOc1cc2c(cc1COC)-c1cc(=O)c(C(=O)O)cn1N1[C@@H]2CCC1(C)C` [Example 73, (R)-11-(methoxymethyl)-12-(3-methoxypropoxy)-3,3-dimethyl-8-oxo-2,3,8,13b-tetrahydro-1H-pyrido[2,1-a]pyrrolo[1,2-c]phthalazine-7-carboxylic acid], the EC50 [2] was 1.9 nM, the CC50 at 5 days [3, 4] was greater than 10000 nM and the “neurite total length and branch point counts” value [1] was “No significant effects”.
For `CC[C@]1(O)C[C@H]2CN(CCc3c([nH]c4ccccc34)[C@@](C(=O)OC)(c3cc4c(cc3OC)N(C=O)[C@H]3[C@@](O)(C(=O)OC)[C@H](OC(C)=O)[C@]5(CC)C=CCN6CC[C@]43[C@@H]65)C2)C1` [Vincristine], the “neurite total length and branch point counts” value ([1]; 4 and 24 hour treatments, vs 0.1% DMSO treated neurons, SSMD analysis) was “significant decreases”, the “Branch Point Count SSMD Values” ([1]; 4 hr, 0.001 μM, vs 0.1% DMSO) was “NS (NS = no significant effect and >−3 SSMD Values.)” and the “Decreased Neurite Length SSMD Values” ([1]; 4 hr, 0.001 μM, vs 0.1% DMSO) was “NS (NS = no significant effect and >−3 SSMD Value.)”. For the same compound, the “Branch Point Count SSMD Values” ([1]; 4 hr, 0.01 μM, vs 0.1% DMSO) was “NS (NS = no significant effect and >−3 SSMD Values.)”, the “Decreased Neurite Length SSMD Values” ([1]; 4 hr, 0.01 μM, vs 0.1% DMSO) was “NS (NS = no significant effect and >−3 SSMD Value.)” and the “Branch Point Count SSMD Values” ([1]; 4 hr, 0.1 μM, vs 0.1% DMSO) was “NS (NS = no significant effect and >−3 SSMD Values.)”. The “Decreased Neurite Length SSMD Values” ([1]; 4 hr, 0.1 μM, vs 0.1% DMSO) was “NS (NS = no significant effect and >−3 SSMD Value.)”, the “Branch Point Count SSMD Values” ([1]; 4 hr, 1 μM, vs 0.1% DMSO) was “NS (NS = no significant effect and >−3 SSMD Values.)” and the “Decreased Neurite Length SSMD Values” ([1]; 4 hr, 1 μM, vs 0.1% DMSO) was −7.3. The “Branch Point Count SSMD Values” ([1]; 4 hr, 10 μM, vs 0.1% DMSO) was −3.0, the “Decreased Neurite Length SSMD Values” ([1]; 4 hr, 10 μM, vs 0.1% DMSO) was −5.7 and the “Branch Point Count SSMD Values” ([1]; 4 hr, 100 μM, vs 0.1% DMSO) was −3.5. The “Decreased Neurite Length SSMD Values” ([1]; 4 hr, 100 μM, vs 0.1% DMSO) was −10, the “Branch Point Count SSMD Values” ([1]; 24 hr, 0.001 μM, vs 0.1% DMSO) was “NS (NS = no significant effect and >−3 SSMD Values.)” and the “Decreased Neurite Length SSMD Values” ([1]; 24 hr, 0.001 μM, vs 0.1% DMSO) was “NS (NS = no significant effect and >−3 SSMD Value.)”. The “Branch Point Count SSMD Values” ([1]; 24 hr, 0.01 μM, vs 0.1% DMSO) was “NS (NS = no significant effect and >−3 SSMD Values.)”, the “Decreased Neurite Length SSMD Values” ([1]; 24 hr, 0.01 μM, vs 0.1% DMSO) was “NS (NS = no significant effect and >−3 SSMD Value.)” and the “Branch Point Count SSMD Values” ([1]; 24 hr, 0.1 μM, vs 0.1% DMSO) was “NS (NS = no significant effect and >−3 SSMD Values.)”. For the same compound, the “Decreased Neurite Length SSMD Values” ([1]; 24 hr, 0.1 μM, vs 0.1% DMSO) was “NS (NS = no significant effect and >−3 SSMD Value.)”, the “Branch Point Count SSMD Values” ([1]; 24 hr, 1 μM, vs 0.1% DMSO) was −3.1 and the “Decreased Neurite Length SSMD Values” ([1]; 24 hr, 1 μM, vs 0.1% DMSO) was −4.9. For the same compound, the “Branch Point Count SSMD Values” ([1]; 24 hr, 10 μM, vs 0.1% DMSO) was −3.6, the “Decreased Neurite Length SSMD Values” ([1]; 24 hr, 10 μM, vs 0.1% DMSO) was −5.4 and the “Branch Point Count SSMD Values” ([1]; 24 hr, 100 μM, vs 0.1% DMSO) was −6.0. For the same compound, the “Decreased Neurite Length SSMD Values” ([1]; 24 hr, 100 μM, vs 0.1% DMSO) was −6.6 and the “neuron counts or neuron viability” value ([1]; any of the tested concentrations (1 nM-100 μM), vs 0.1% DMSO control, SSMD analysis) was “No significant changes of effect”.
For `COCC12CC(COc3cc4c(cc3OC(F)F)-c3cc(=O)c(C(=O)O)cn3N3[C@@H]4CCC3(C)C)(C1)C2` [Compound 105, (R)-11-(difluoromethoxy)-12-((3-(methoxymethyl)bicyclo[1.1.1]pentan-1-yl)methoxy)-3,3-dimethyl-8-oxo-2,3,8,13b-tetrahydro-1H-pyrido[2,1-a]pyrrolo[1,2-c]phthalazine-7-carboxylic acid], the EC50 [2] was 1.4 nM and the CC50 at 5 days [3, 4] was greater than 10000 nM.
With `COCCCOc1cc2c(cc1COC)-c1cc(=O)c(C(=O)O)cn1N1[C@@H]2COCC12CCC2` [Compound 114, (S)-12′-(methoxymethyl)-13′-(3-methoxypropoxy)-9′-oxo-9′,14b′-dihydro-1′H,3′H-spiro[cyclobutane-1,4′-[1,4]oxazino[3,4-a]pyrido[1,2-c]phthalazine]-8′-carboxylic acid] the EC50 [2] was 67.6 nM and the CC50 at 5 days ([3]; MT-4 CC50) was greater than 10000 nM.
In the case of `COCCCOc1cc2c(cc1Cl)-c1cc(=O)c(C(=O)O)cn1N1[C@@H]2CC1(C)C` [Example 46, (R)-10-chloro-11-(3-methoxypropoxy)-2,2-dimethyl-7-oxo-1,2,7,12b-tetrahydroazeto[2,1-a]pyrido[1,2-c]phthalazine-6-carboxylic acid and (S)-10-chloro-1-(3-methoxypropoxy)-2,2-dimethyl-7-oxo-1,2,7,12b-tetrahydroazeto[2,1-a]pyrido[1,2-c]phthalazine-6-carboxylic acid], the EC50 [2] is reported as 7.8 nM and the CC50 at 5 days [3, 4] is reported as greater than 10000 nM.
`CCc1cc2c(cc1OCC13CC(C#N)(C1)C3)[C@H]1CCC(C)(C)N1n1cc(C(=O)O)c(=O)cc1-2` [Example 100, (R)-12-((3-cyanobicyclo[1.1.1]pentan-1-yl)methoxy)-11-ethyl-3,3-dimethyl-8-oxo-2,3,8,13b-tetrahydro-1H-pyrido[2,1-a]pyrrolo[1,2-c]phthalazine-7-carboxylic acid] showed an EC50 [2] of 0.48 nM and a CC50 at 5 days [3, 4] of 3900 nM.
With `COCCCOc1cc2c(cc1COC)-c1cc(=O)c(C(=O)O)cn1N1[C@@H]2COCC1(C)C` [Example 102, (S)-12-(methoxymethyl)-13-(3-methoxypropoxy)-4,4-dimethyl-9-oxo-3,4,9,14b-tetrahydro-1H-[1,4]oxazino[3,4-a]pyrido[1,2-c]phthalazine-8-carboxylic acid] the EC50 [2] was 11.5 nM and the CC50 at 5 days [3, 4] was greater than 10000 nM.
Compound `COCCCOc1c(OC)cc2c(c1Br)[C@H]1CCC(C)(C)N1n1cc(C(=O)O)c(=O)cc1-2` [Example 40, (R)-13-bromo-11-methoxy-12-(3-methoxypropoxy)-3,3-dimethyl-8-oxo-2,3,8,13b-tetrahydro-1H-pyrido[2,1-a]pyrrolo[1,2-c]phthalazine-7-carboxylic acid] has an EC50 [2] of 360 nM and a CC50 at 5 days [3, 4] of 8800 nM.
Compound `CCc1cc2c(cc1OCCCOC)[C@H]1CCC(C)(C)N1n1cc(C(=O)O)c(=O)cc1-2` [Example 63, (R)-11-Ethyl-12-(3-methoxypropoxy)-3,3-dimethyl-8-oxo-2,3,8,13b-tetrahydro-1H-pyrido[2,1-a]pyrrolo[1,2-c]phthalazine-7-carboxylic acid] has an EC50 [2] of 0.34 nM and a CC50 at 5 days [3, 4] greater than 10000 nM.
Compound `COc1cc2c(cc1OCC1CC(F)(F)C1)[C@H]1CCC(C)(C)N1n1cc(C(=O)O)c(=O)cc1-2` [Example 50, (R)-12-((3,3-difluorocyclobutyl)methoxy)-11-methoxy-3,3-dimethyl-8-oxo-2,3,8,13b-tetrahydro-1H-pyrido[2,1-a]pyrrolo[1,2-c]phthalazine-7-carboxylic acid] has an EC50 [2] of 1 nM and a CC50 at 5 days [3, 4] greater than 10000 nM.
`COCCCOc1cc2c(cc1OC(F)F)-c1cc(=O)c(C(=O)O)cn1N1C2CCC1(C)C` (stereo not drawn) [Example 18, 11-(difluoromethoxy)-12-(3-methoxypropoxy)-3,3-dimethyl-8-oxo-2,3,8,13b-tetrahydro-1H-pyrido[2,1-a]pyrrolo[1,2-c]phthalazine-7-carboxylic acid] gave an EC50 [2] of 4 nM and a CC50 at 5 days [3, 4] greater than 10000 nM.
